What is called melting point is the temperature of the solid-liquid transition. With `O=C(NC[C@@H]1CN2C(=O)C[C@H]2O1)c1cc(F)c(F)cc1F` (racemic), the melting point fell in the range of 76.5 to 78.1 °C.

In the case of `COc1cc(OC)nc(Oc2ccc3[nH]c(C)cc3c2C(=O)OCc2ccccc2)n1`, the melting point was in the range of 135 to 139 °C.

`CCCc1nc2c(N)nc3cc(OCCN4CCCCC4)ccc3c2s1` yielded a melting point of 141 to 143 °C.

`CC(C)(C)OC(=O)C[C@H](NC(=O)CNC(=O)c1csc(NC(=O)NCc2ccccc2)n1)C(=O)NCc1ccccn1` had a melting point of 108 °C.

With `N#Cc1ccc(NC(=O)c2ccc(-n3nc(C(F)(F)F)cc3C(F)(F)F)cc2)cc1`, the melting point was in the range of 192 to 193 °C.

For the molecule `Cc1nc2c(NC(=O)OCCc3ccc([N+](=O)[O-])cc3)nc(=O)n(C3CC(O)C(CO)O3)c2nc1C` (stereo unspecified), the melting point lay within 154 to 155 °C.

In the case of `CCOC(=O)C(CC)n1c(NC(=O)c2cccs2)nc2cc(C(=O)N(C)C3CCCCC3)ccc21` (stereo unspecified), the melting point is 82 to 84 °C.

In the case of `O=c1oc(-c2ccc3c(c2)OCCO3)cc(O)c1C(CC1CC1)SC1CCCC1` (stereo unspecified), the melting point lay in the range of 80 to 82 °C.

As to `COc1cc2cc(C3CCCC3)sc2c(Cl)c1Cl`, the melting point fell in the range of 59.5 to 60 °C.

For the molecule `O=C(CCNC(=O)[C@H](Cc1ccccc1)OP(=O)(O)CCCCc1ccccc1)OCc1ccccc1`, the melting point is 64 to 70 °C.

`COc1cc(C)c(C(=O)c2c(Cl)nc(Cl)c(C(C)=O)c2C(F)(F)F)c(OC)c1OC` displayed a melting point of 109 to 112 °C.

Turning to `COCCN1CCN(c2ccc(N3C[C@H](CNC(C)=O)OC3=O)cc2F)CC1`, the melting point was in the range of 144 to 146 °C.

Molecule `CSC(=NC(=O)c1ccccc1)Nc1c(Cl)cccc1Cl` yielded a melting point of 127 to 129 °C.

As for `O=C(O)CCCc1cc2cc(Cl)ccc2n1S(=O)(=O)c1ccc2c(c1)OCCO2`, the melting point was in the range of 131 to 134 °C.

`Cc1nn(-c2ccccn2)c2ncc(C(=O)c3ccccc3)c(O)c12`: the melting point fell in the range of 224 to 226 °C.

As to `O=c1c2c(Cc3ccc(OC(F)(F)F)cc3)n[nH]c2c2cccnc2n1-c1cccc(OC(F)(F)F)c1`, the melting point lay within 129 to 132 °C.

Molecule `O=C(O)C1NCCc2c1[nH]c1ccc(F)cc21` (stereo unspecified) gave a melting point of 237 to 238 °C.

Turning to `C#CCOc1cc(Cl)nc(Nc2ccccc2)n1`, the melting point is 92 to 93 °C.

`Cn1c(COc2ccc(CC3SC(=O)NC3=O)cc2)nc2ccc(Oc3cccc(NC(=O)Nc4ccc(C(F)(F)F)cc4)c3)cc21` (stereo unspecified): the melting point was 192 to 194 °C.

On to `CC(=O)C(C)S(=O)(=O)c1ccc(C=C(C)c2ccc3c(c2)C(C)(C)CCC3(C)C)cc1` (stereo unspecified), for which the melting point is 139 to 141 °C.

On to `CC(C)C1(C)N=C(c2ccc(O)cn2)NC1=O` (stereo unspecified), for which the melting point lay within 252 to 254 °C.

For the molecule `O=C(O)CCCSc1ncnc2ncn(Cc3ccc4c(c3)Nc3nccnc3S4)c12`, the melting point was 120 to 130 °C.

With `CCn1nnc(-c2ccc(CN3CCC(C(O)(c4ccc5c(c4)OC(F)(F)O5)c4ccc5c(c4)OC(F)(F)O5)CC3)cc2)n1`, the melting point fell in the range of 79 to 81 °C.

Molecule `O=C(NCCN1CCOCC1)c1ccc(Cl)cc1` yielded a melting point of 120 to 121 °C.

As for `COC(=O)c1sc2cc([N+](=O)[O-])ccc2c1N`, the melting point was in the range of 169 to 170 °C.

In turn, `CNC(=O)N(O)C(C)c1cc2cc(Cl)ccc2[nH]1` (stereo unspecified) returned a melting point of 159 to 160 °C.

In turn, `CCOC(=O)c1cn(C)nc1Nc1ccc(C(F)(F)F)cc1N` showed a melting point of 162 °C.

The molecule `Cc1cccc(C(=O)NO)c1N(C)S(=O)(=O)c1ccc(OCCCNC(=O)c2cc3ccccc3o2)cc1` displayed a melting point of 148 to 150 °C.

Regarding `COc1cc2c(c3c1OC(C)(C)C3)C(c1ccnc(-n3c(=O)cc(C)c4ccccc43)c1)=NC(C)(C)C2`, the melting point was in the range of 218 to 219 °C.

The molecule `Nc1cc(-n2cc(C(=O)O)c(=O)c3cc(F)c(NCC(O)C(F)(F)F)c(Cl)c32)c(F)cc1F` (stereo unspecified) displayed a melting point of 134 to 138 °C.

With `C[C@H]1CCCC(C)(C)[C@@H]1[C@H](O)c1ccc(F)cc1`, the melting point was in the range of 55 to 57 °C.

For the molecule `Cc1c(-c2cc(CN(C)C)ccc2F)sc2nc(N)[nH]c(=O)c12`, the melting point lay within 230 to 250 °C.

For `CCc1cc2c([nH]c1=O)C(=O)C=CC2=O`, the melting point worked out at 168 °C.

As to `COC(=O)c1ccc(CCNCC(O)c2ccccc2Cl)cc1` (stereo unspecified), the melting point lay within 94 to 95 °C.

On to `Cc1sc2ccc(Cl)cc2c1C1=NCCN1`, for which the melting point fell in the range of 190 to 192 °C.

`COC(=O)[C@H](CS)NC(=O)[C@@H](O)CO` registered a melting point of 90 to 92 °C.

For `c1ccc(CN2C(=NCCCn3ccnc3)c3cccc4cccc2c34)cc1`, the melting point fell in the range of 90 to 93 °C.

In turn, `CC(C)(C)c1cc(C=Cc2ccccc2NC(=O)N(Cc2ccccc2)Cc2ccccc2)cc(C(C)(C)C)c1O` displayed a melting point of 175 to 178 °C.

`COC1CC2(C)C(CCC3C4CCC(C(=O)COC(C)=O)C4(C)CC(=O)C32)CC1O` (stereo unspecified) gave a melting point of 177 to 180 °C.

Turning to `CC1(C)Oc2ccc([N+](=O)[O-])cc2C(n2ccccc2=O)=C1CNC=O`, the melting point is 170 °C.

Take `CCN(CCCCCCCCN(CC)S(=O)(=O)c1ccc(C)cc1)S(=O)(=O)c1ccc(C)cc1`: the melting point lay within 112 to 113 °C.

Molecule `O=C(O)c1cn(C2CC2)c2nc(N3CCNCC3)c(F)cc2c1=O` had a melting point of 274 to 276 °C.

In turn, `CCOC(=O)c1c(Br)c2cc(OCc3ccccc3)ccc2n1C` came in with a melting point of 125 to 127 °C.

`N#CCCN1CCC(c2ccccc2)(c2ccccc2)CC1` came in with a melting point of 95 to 96 °C.

The molecule `CCCCc1nc2cc(F)ccc2n1Cc1ccc(C(=O)O)cc1` registered a melting point of 202 to 204 °C.

On to `COCCN(C)CCc1c(-c2ccc(N)cc2)sc2c1c(=O)n(-c1ccc3c(c1)OCO3)c(=O)n2Cc1c(F)cccc1F`, for which the melting point fell in the range of 200 to 202 °C.

`CC1(C)C(N)C(C)(C)S1(=O)=O` yielded a melting point of 104 to 106 °C.

`Cc1ccc2c(c1)C(NC(=O)CCCCl)c1ccccc1CS2(=O)=O` (stereo unspecified) showed a melting point of 203 to 204 °C.

For `C#CCn1c(C(F)(F)F)c(C=O)c2ccccc21`, the melting point was 106 °C.

In the case of `O=C(Nc1cccc(C(F)(F)F)c1)c1cccnc1NCc1ccc(=O)[nH]c1`, the melting point fell in the range of 200 to 202 °C.

In turn, `CCCCCCCCOc1cc2c(cc1/C(C)=C/c1ccc(C(=O)OC)cc1)C(C)(C)CCCS2(=O)=O` showed a melting point of 79 to 80 °C.

`COc1ccc2nc(CC(C)C)c(CN)c(-c3ccccc3)c2c1` displayed a melting point of 73 to 76 °C.

As to `COc1ccc2[nH]cc(C=C[N+](=O)[O-])c2c1`, the melting point lay within 151 to 152 °C.

Molecule `CCOC(=O)c1c(C)cc(O)c(C(=O)OCC)c1O` returned a melting point of 61 to 62 °C.

With `C=CCN1CCC(O)(c2cc(F)cc(F)c2)C1` (single isomer, unassigned; (-)), the melting point was 102 to 103 °C.

`Nc1ncnc2c1c(C#CCO)nn2Cc1oc2ccccc2c(=O)c1-c1ccccc1` gave a melting point of 171 to 173 °C.

The molecule `OC(c1ccc(F)cc1)c1cccnc1` (stereo unspecified) yielded a melting point of 45 to 47 °C.

Molecule `Cn1ccc(C(=O)O)c(OCc2ccccc2)c1=O` had a melting point of 129 to 130 °C.

`Cc1nn(-c2ccc(Cl)cc2)c(C)c1NC(N)=S` displayed a melting point of 244 to 246 °C.

On to `COc1ccc(-c2ccco2)c2c1c(CCN(C)C)cn2C`, for which the melting point fell in the range of 90 to 93 °C.

Consider `Nc1cc(=O)n(CC2CCCCC2)c(=S)n1CC1CCCCC1`, for which the melting point lay within 147 to 150 °C.

The record behind these values is a melting point compilation (Tetko et al.; mined from patent text by program, amines drawn as free bases though some values may be those of a salt).
